Experimental data published in ChEMBL document CHEMBL2069200, “Synthesis and evaluation of 4-(substituted styryl/alkenyl)-3,5-bis(4-hydroxyphenyl)-isoxazoles as ligands for the estrogen receptor” (Bioorg Med Chem Lett, 2012).

Target: T1, Estrogen receptor (Homo sapiens) (UniProt P03372)
T1 sequence (whole entry): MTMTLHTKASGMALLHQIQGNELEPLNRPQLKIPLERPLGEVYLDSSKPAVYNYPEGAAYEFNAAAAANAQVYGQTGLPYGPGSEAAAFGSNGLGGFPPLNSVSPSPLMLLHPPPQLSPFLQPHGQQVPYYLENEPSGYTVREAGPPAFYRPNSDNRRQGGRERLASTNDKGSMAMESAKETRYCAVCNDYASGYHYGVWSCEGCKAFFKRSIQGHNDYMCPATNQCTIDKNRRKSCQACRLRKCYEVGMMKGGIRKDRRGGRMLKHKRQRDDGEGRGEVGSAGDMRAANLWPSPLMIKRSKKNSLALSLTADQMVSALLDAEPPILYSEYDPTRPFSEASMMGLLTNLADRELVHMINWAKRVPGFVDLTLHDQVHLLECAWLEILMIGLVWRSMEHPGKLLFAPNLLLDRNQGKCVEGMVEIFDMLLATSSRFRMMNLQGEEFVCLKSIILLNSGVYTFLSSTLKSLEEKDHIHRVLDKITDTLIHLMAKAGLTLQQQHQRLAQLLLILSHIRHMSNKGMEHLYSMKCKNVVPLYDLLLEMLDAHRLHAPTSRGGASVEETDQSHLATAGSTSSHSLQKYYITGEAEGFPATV
Test: Displacement of [3H]-estradiol from human ERalpha LBD expressed in Escherichia coli assessed as relative binding affinity relative to estradiol

Structure (SMILES) | RBA
Oc1ccc(-c2noc(-c3ccc(O)cc3)c2/C=C/c2ccc(Cl)cc2)cc1 | 0.8%
Oc1ccc(-c2noc(-c3ccc(O)cc3)c2/C=C/c2cccc(C(F)(F)F)c2)cc1 | 1.5%
CCCCCC/C=C/c1c(-c2ccc(O)cc2)noc1-c1ccc(O)cc1 | 2.5%
CCc1c(-c2ccc(O)cc2)nn(-c2ccc(O)cc2)c1-c1ccc(O)cc1 | 36%
CC(C)(C)/C=C/c1c(-c2ccc(O)cc2)noc1-c1ccc(O)cc1 | 4.3%
CCCCCCC/C=C/c1c(-c2ccc(O)cc2)noc1-c1ccc(O)cc1 | 1.3%
Cc1ccc(/C=C/c2c(-c3ccc(O)cc3)noc2-c2ccc(O)cc2)cc1 | 0.6%
Oc1ccc(-c2noc(-c3ccc(O)cc3)c2-c2ccc(O)cc2)cc1 | 30%
Oc1ccc(-c2noc(-c3ccc(O)cc3)c2/C=C/c2ccc(C(F)(F)F)cc2)cc1 | 5.3%
CCCCC/C=C/c1c(-c2ccc(O)cc2)noc1-c1ccc(O)cc1 | 1.8%

Now from value to molecule:

RBA | Structure (SMILES)
3.1% | Oc1ccc(-c2noc(-c3ccc(O)cc3)c2/C=C/c2ccc(F)cc2)cc1
8.7% | Oc1ccc(-c2noc(-c3ccc(O)cc3)c2/C=C/c2cccc(O)c2)cc1
16.4% | Oc1ccc(/C=C/c2c(-c3ccc(O)cc3)noc2-c2ccc(O)cc2)cc1
3.5% | Oc1ccc(-c2noc(-c3ccc(O)cc3)c2/C=C/c2ccccc2)cc1
8.7% | Oc1ccc(-c2noc(-c3ccc(O)cc3)c2/C=C\c2ccccc2)cc1
